In patent US20150225380A1, “Novel Method to Obtain Olmesartan Medoxomil With Reduced Particle Size” (LUPIN LIMITED, priority 2012, published 2015):

Assays:
[1] = Minimum ignition energy and powder resistivity of the powder; assay type: physicochemical; details: observed by the present inventors; process safety for milling
[2] = Particle size distribution, Malvern Hydro2000S (A); assay type: physicochemical; details: crystals of Example 1, seeded crystallisation from acetone, no milling
Procedure: The particle size distribution of olmesartan medoxomil (I) is measured utilizing: Instrument model: Malvern; Dispersion unit: Hydro2000S (A); Particle refraction index of sample: 1.427; Absorption: 0.1; Dispersant refraction index: 1.468 and Size range: 0.020-2000 μm.

particle size distribution d10 [2]: 0.984 μm
particle size distribution d50 [2]: 8.484 μm
particle size distribution d90 [2]: 18.756 μm
SMILES: CCCc1nc(C(C)(C)O)c(C(=O)OCc2oc(=O)oc2C)n1Cc1ccc(-c2ccccc2-c2nnn[nH]2)cc1 [olmesartan medoxomil, 4-(1-hydroxy-1-methylethyl)-2-propyl-1-[[2′-(1H-tetrazol-5-yl) [1, 1′-biphenyl]-4-yl]methyl]-1H-imidazole-5-carboxylic acid (5-methyl-2-oxo-1,3-dioxol-4-yl)methyl ester]
minimum ignition energy [1]: less than 3 mJ
powder resistivity [1]: very high
